Experimental data: US8445478B2 (Sanofi, priority 2007, dated 2013)

Assays:
human CB1 receptor = human CB1 receptor (Homo sapiens, UniProt P21554); assay: cell-based
Experimental: The compounds according to the invention were the subject of pharmacological tests for determining the activity with respect to human cannabinoid CB1-type receptors. The efficacy of the compounds of formula (I) was determined in a functional test which measures cannabinoid CB1 receptor activity (intracellular cyclic AMP test). The test for detecting intracellular cyclic AMP in U373MG cells naturally expressing the human CB1 receptor was carried out as described in the reference: Bouaboula et al., 1995, J. Biol. Chem. 270:13973-13980. The HTRF cAMP Dynamic Kit from CisBio was used to quantify the intracellular cyclic AMP.

[1] = molecular target: T1, cannabinoid CB1-type receptor (Mus musculus, UniProt P47746); assay: inhibition of gastrointestinal transit induced by racemic CP55,940 in mice; type: in vivo; details: 1 mg/kg per os; 3 hours after administration of the product; male CD1 mice; CP55,940 0.15 mg/kg ip
T1 construct: male CD1 mice received the test product per os; from tissue; host or cells: whole animal, male CD1 mice
T1 sequence (P47746 whole entry): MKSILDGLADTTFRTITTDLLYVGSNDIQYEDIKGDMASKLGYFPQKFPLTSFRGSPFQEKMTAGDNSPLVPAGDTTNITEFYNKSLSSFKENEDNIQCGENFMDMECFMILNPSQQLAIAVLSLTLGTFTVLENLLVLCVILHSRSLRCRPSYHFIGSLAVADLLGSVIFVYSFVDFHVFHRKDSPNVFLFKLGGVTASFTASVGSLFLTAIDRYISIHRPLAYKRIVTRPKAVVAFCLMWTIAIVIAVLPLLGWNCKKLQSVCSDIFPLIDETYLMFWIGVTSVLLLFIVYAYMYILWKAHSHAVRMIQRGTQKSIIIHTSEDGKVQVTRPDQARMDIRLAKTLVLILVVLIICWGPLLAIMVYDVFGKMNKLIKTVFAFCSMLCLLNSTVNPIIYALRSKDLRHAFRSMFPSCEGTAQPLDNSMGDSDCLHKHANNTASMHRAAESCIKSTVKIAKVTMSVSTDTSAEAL
Experimental: After a further 30 minutes, the animals received a charcoal bolus po. Thirty minutes later, the animals are sacrificed by euthanasia (CO2/O2) and the intestine is dissected. The progression of the charcoal bolus in the intestine is expressed as percentage of the total length of the intestine.

cannabinoid CB receptor = cannabinoid CB receptor (Mus musculus, UniProt P47746); assay: hypothermia induced by cannabinoid CB receptor agonist CP55,940 in mice; details: 3 mg/kg po; male CD1 mice; CP55,940 1.25 mg/kg i.p.; rectal temperature at 90 minutes
cannabinoid CB receptor, sequence (P47746 whole entry): as above
Experimental: At time 0 min, the rectal temperature of male CD1 mice is measured before injection of the test product. At 30 minutes, a further measurement of the rectal temperature of the mice is taken and the racemic CP55,940 agonist ORS, 3RS, 4RS-3-[hydroxy-2-(1,1-dimethylheptyl)phenyl]-4-(3-hydroxypropyl)cyclohexan-1-ol) (1.25 mg/kg i.p. in 10% cremophor) is administered. At 90 minutes, the rectal temperature is again taken. The results are expressed as % relative to the control batch injected with the CP55,940 (minimum temperature) and to the carrier batch without CP55,940 treatment (maximum temperature).

human CB1 receptor, sequence (P21554 whole entry): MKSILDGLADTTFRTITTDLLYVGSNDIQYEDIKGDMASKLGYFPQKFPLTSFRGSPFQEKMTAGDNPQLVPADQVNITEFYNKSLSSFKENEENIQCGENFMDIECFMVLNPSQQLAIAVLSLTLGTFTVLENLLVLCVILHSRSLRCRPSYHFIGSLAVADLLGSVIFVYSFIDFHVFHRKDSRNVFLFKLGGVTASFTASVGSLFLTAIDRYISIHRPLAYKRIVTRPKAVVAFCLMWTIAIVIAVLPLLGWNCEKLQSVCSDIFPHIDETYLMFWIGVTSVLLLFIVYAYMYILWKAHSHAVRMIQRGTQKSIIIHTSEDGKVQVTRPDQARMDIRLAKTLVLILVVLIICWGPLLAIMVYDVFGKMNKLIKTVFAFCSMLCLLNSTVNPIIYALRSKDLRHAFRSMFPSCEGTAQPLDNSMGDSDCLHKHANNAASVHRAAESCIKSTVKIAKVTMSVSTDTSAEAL

With `C[C@H](NC(=O)c1cccc(N(C2CN(C(c3ccc(Cl)cc3)c3ccc(Cl)cc3)C2)S(C)(=O)=O)c1)C(N)=O` the IC50 (human CB1 receptor) was 43 nM, the “percentages of inhibition (gastrointestinal transit model)” value [1] was 39.2% and the “percentages of inhibition of the decrease in temperature induced by the agonist” value (cannabinoid CB receptor) was 5%.

In the case of `C[C@H](NC(=O)c1cc(F)cc(N(C2CN(C(c3ccc(Cl)cc3)c3ccc(Cl)cc3)C2)S(C)(=O)=O)c1)C(N)=O`, the IC50 (human CB1 receptor) is reported as 9 nM and the “percentages of inhibition (gastrointestinal transit model)” value [1] is reported as 49%.

Compound `C[C@@H](NC(=O)c1cc(F)cc(N(C2CN(C(c3ccc(Cl)cc3)c3ccc(Cl)cc3)C2)S(C)(=O)=O)c1)C(N)=O` has an IC50 (human CB1 receptor) of 284 nM.

With `COc1cc(NS(=O)(=O)CC2CN(C(c3ccc(Cl)cc3)c3ccc(Cl)cc3)C2)cc(C(=O)N[C@@H](C)C(N)=O)c1` (hydrate or solvate) [compound 22, 3-({1-[bis(4-chlorophenyl)methyl]azetidin-3-yl}methanesulphonylamino)-N—((S)-1-carbamoylethyl)-5-methoxybenzamide] the melting point was 183 to 185 °C.

In the case of `C[C@H](NC(=O)c1cccc(NS(=O)(=O)CC2CN(C(c3ccc(Cl)cc3)c3ccc(Cl)cc3)C2)c1)C(N)=O` [Compound No. 1, 3-({1-[bis(4-chlorophenyl)methyl]azetidin-3-yl}methanesulphonylamino)-N—((S)-1-carbamoylethyl)benzamide], the melting point is reported as 229 °C.

For `NC(=O)CNC(=O)c1cc(F)cc(NS(=O)(=O)CC2CN(C(c3ccc(Cl)cc3)c3ccc(Cl)cc3)C2)c1` [Compound No. 2, 3-({1-[bis(4-chlorophenyl)methyl]azetidin-3-yl}methanesulphonylamino)-N-carbamoylmethyl-5-fluorobenzamide], the melting point was 154 to 156 °C.

`C[C@H](NC(=O)c1cc(F)cc(NS(=O)(=O)CC2CN(C(c3ccc(Cl)cc3)c3ccc(Cl)cc3)C2)c1)C(N)=O` [Compound No. 3, 3-({1-[Bis(4-chlorophenyl)methyl]azetidin-3-yl}methanesulphonylamino)-N—((S)-1-carbamoylethyl)-5-fluorobenzamide] gave a melting point of 228 to 230 °C.

Work on `C[C@@H](NC(=O)c1cc(F)cc(NS(=O)(=O)CC2CN(C(c3ccc(Cl)cc3)c3ccc(Cl)cc3)C2)c1)C(N)=O` [Compound No. 4, 3-({1-[bis(4-chlorophenyl)methyl]azetidin-3-yl}methanesulphonylamino)-N—((R)-1-carbamoylethyl)-5-fluorobenzamide] yielded a melting point of 219 to 221 °C.

Work on `C[C@@H](NC(=O)c1cccc(NS(=O)(=O)CC2CN(C(c3ccc(Cl)cc3)c3ccc(Cl)cc3)C2)c1)C(N)=O` [Compound No. 5, 3-({1-[Bis(4-chlorophenyl)methyl]azetidin-3-yl}methanesulphonylamino)-N—((R)-1-carbamoylethyl)benzamide] yielded a melting point of 235 °C.

Compound `NC(=O)CCNC(=O)c1cccc(NS(=O)(=O)CC2CN(C(c3ccc(Cl)cc3)c3ccc(Cl)cc3)C2)c1` [Compound No. 7, 3-({1-[bis(4-chlorophenyl)methyl]azetidin-3-yl}methanesulphonylamino)-N-(2-carbamoylethyl)benzamide] has a melting point of 190 to 192 °C.

In the case of `O=C(NCC(=O)N1CCOCC1)c1cccc(NS(=O)(=O)CC2CN(C(c3ccc(Cl)cc3)c3ccc(Cl)cc3)C2)c1` [Compound No. 8, 3-({1-[bis(4-chlorophenyl)methyl]azetidin-3-yl}methanesulphonylamino)-N-(2-morpholin-4-yl-2-oxoethyl)benzamide], the melting point is reported as 176 °C.

`CNC(=O)[C@H](C)NC(=O)c1cccc(NS(=O)(=O)CC2CN(C(c3ccc(Cl)cc3)c3ccc(Cl)cc3)C2)c1` [Compound No. 9, 3-({1-[bis(4-chlorophenyl)methyl]azetidin-3-yl}methanesulphonylamino)-N—((S)-1-methylcarbamoylethyl)benzamide] gave a melting point of 171 to 173 °C.

`CC[C@H](NC(=O)c1cccc(NS(=O)(=O)CC2CN(C(c3ccc(Cl)cc3)c3ccc(Cl)cc3)C2)c1)C(N)=O` [compound 10, 3-({1-[bis(4-chlorophenyl)methyl]azetidin-3-yl}methanesulphonylamino)-N—((S)-1-carbamoylpropyl)benzamide] showed a melting point of 220 to 222 °C.

For `NC(=O)[C@H](CO)NC(=O)c1cc(F)cc(NS(=O)(=O)CC2CN(C(c3ccc(Cl)cc3)c3ccc(Cl)cc3)C2)c1` [compound 13, 3-({1-[bis(4-chlorophenyl)methyl]azetidin-3-yl}methanesulphonylamino)-N—((S)-1-carbamoyl-2-hydroxyethyl)-5-fluorobenzamide], the melting point was 212 to 214 °C.

`CC[C@H](NC(=O)c1cc(F)cc(NS(=O)(=O)CC2CN(C(c3ccc(Cl)cc3)c3ccc(Cl)cc3)C2)c1)C(N)=O` [compound 14, 3-({1-[bis(4-chlorophenyl)methyl]azetidin-3-yl}methanesulphonylamino)-N—((S)-1-carbamoylpropyl)-5-fluorobenzamide] showed a melting point of 212 to 214 °C.

Work on `CNC(=O)CNC(=O)c1cccc(NS(=O)(=O)CC2CN(C(c3ccc(Cl)cc3)c3ccc(Cl)cc3)C2)c1` [compound 15, 3-({1-[bis(4-chlorophenyl)methyl]azetidin-3-yl}methanesulphonylamino)-N-(methylcarbamoylmethyl)benzamide] yielded a melting point of 216 °C.

With `NC(=O)CNC(=O)c1cccc(NS(=O)(=O)CC2CN(C(c3ccc(Cl)cc3)c3ccc(Cl)cc3)C2)c1` [compound 16, 3-({1-[bis(4-chlorophenyl)methyl]azetidin-3-yl}methanesulphonylamino)-N-(carbamoylmethyl)benzamide] the melting point was 196 to 198 °C.

`CNC(=O)[C@H](C)NC(=O)c1cc(F)cc(NS(=O)(=O)CC2CN(C(c3ccc(Cl)cc3)c3ccc(Cl)cc3)C2)c1` [compound 26, 3-({1-[bis(4-chlorophenyl)methyl]azetidin-3-yl}methanesulphonylamino)-5-fluoro-N—((S)-1-methylcarbamoylethyl)benzamide] gave a melting point of 150 °C.

`NC(=O)CCCNC(=O)c1cc(F)cc(NS(=O)(=O)CC2CN(C(c3ccc(Cl)cc3)c3ccc(Cl)cc3)C2)c1` [compound 28, 3-({1-[bis(4-chlorophenyl)methyl]azetidin-3-yl}methanesulphonylamino)-N-(3-carbamoylpropyl)-5-fluorobenzamide] showed a melting point of 186 °C.

In the case of `CC[C@H](NC(=O)c1ccc(F)c(N(C2CN(C(c3ccc(Cl)cc3)c3ccc(Cl)cc3)C2)S(C)(=O)=O)c1)C(N)=O` [compound 36], the IC50 (human CB1 receptor) is reported as 952 nM.

With `Cc1cc(NS(=O)(=O)CC2CN(C(c3ccc(Cl)cc3)c3ccc(Cl)cc3)C2)cc(C(=O)N[C@@H](C)C(N)=O)c1` [compound 38, 3-({1-[bis(4-chlorophenyl)methyl]azetidin-3-yl}methanesulphonylamino)-N—((S)-1-carbamoylethyl)-5-methylbenzamide] the “percentages of inhibition of the decrease in temperature induced by the agonist” value (cannabinoid CB receptor) was 17%.

In the case of `CC[C@H](NC(=O)c1cc(NS(=O)(=O)CC2CN(C(c3ccc(Cl)cc3)c3ccc(Cl)cc3)C2)cc(C(F)(F)F)c1)C(N)=O` [compound 55, 3-({1-[bis(4-chlorophenyl)methyl]azetidin-3-yl}methanesulphonylamino)-N—((S)-1-carbamoylpropyl)-5-trifluoromethylbenzamide], the “percentages of inhibition (gastrointestinal transit model)” value [1] is reported as 74% and the “percentages of inhibition of the decrease in temperature induced by the agonist” value (cannabinoid CB receptor) is reported as 28%.

Work on `CC(C)[C@H](NC(=O)c1cc(N(C2CN(C(c3ccc(Cl)cc3)c3ccc(Cl)cc3)C2)S(C)(=O)=O)cc(C(F)(F)F)c1)C(N)=O` [compound 56] yielded an IC50 (human CB1 receptor) of 41 nM.

For `CNC(=O)[C@H](C)NC(=O)c1cc(NS(=O)(=O)CC2CN(C(c3ccc(Cl)cc3)c3ccc(Cl)cc3)C2)cc(C(F)(F)F)c1` [compound 57, 3-({1-[bis(4-chlorophenyl)methyl]azetidin-3-yl}methanesulphonylamino)-N—((S)-1-methylcarbamoylethyl)-5-trifluoromethylbenzamide], the “percentages of inhibition (gastrointestinal transit model)” value [1] was 78% and the “percentages of inhibition of the decrease in temperature induced by the agonist” value (cannabinoid CB receptor) was 21%.

For `C[C@H](NC(=O)c1cc(N(C2CN(C(c3ccc(Cl)cc3)c3ccc(Cl)cc3)C2)S(C)(=O)=O)cc(C(F)(F)F)c1)C(=O)O` [compound 68], the IC50 (human CB1 receptor) was 24 nM and the “percentages of inhibition (gastrointestinal transit model)” value [1] was 7%.

For `C[C@H](NC(=O)c1cc(F)cc(N(C2CN(C(c3ccc(Br)cc3)c3ccc(Br)cc3)C2)S(C)(=O)=O)c1)C(N)=O` [compound 70, 3-({1-[bis(4-bromophenyl)methyl]azetidin-3-yl}methanesulphonylamino)-N—((S)-1-carbamoylethyl)-5-fluorobenzamide], the IC50 (human CB1 receptor) was 31 nM.

In the case of `CCOC(=O)[C@H](C)NC(=O)c1cc(F)cc(N(C2CN(C(c3ccc(Cl)cc3)c3ccc(Cl)cc3)C2)S(C)(=O)=O)c1` [compound 79], the IC50 (human CB1 receptor) is reported as 70 nM.
